pIC50: −log10 of the molar value.
Assays:
[1] = molecular target: HPV-11 E2 (E2-dependent binding of E1 to the HPV-11 origin of replication) (Human papillomavirus 11, UniProt P04015); assay: E2-dependent E1 origin-binding assay; type: biochemical; conditions: assay of Example 6; read-out: IC50 (inhibitory activity)
Description: E2-Dependent E1 Origin-Binding Assay
This assay was modeled on a similar assay for SV40 T Antigen described by McKay (J. Mol. Biol., 1981,145:471). A 400 bp radiolabeled DNA probe, containing the HPV-11 origin of replication (Chiang et al., 1992, Proc. Natl. Acad. Sci. USA 89:5799) was produced by PCR, using plasmid pBluescript™ SK encoding the origin (nucleotides 7886-61 of the HPV-11 genome in unique BAMH1 site) as template and primers flanking the origin. Radiolabel was incorporated as [^33P]dCTP. Binding assay buffer consisted of: 20 mM Tris pH 7.6, 100 mM NaCl, 1 mM DTT, 1 mM EDTA.
Other reagents used were protein A-SPA beads (type II, Amersham) and K72 rabbit polyclonal antiserum, raised against a peptide corresponding to the C-terminal 14 amino acids of HPV-11 E1. Following the protocol from Amersham, one bottle of beads was mixed with 25 mL of binding assay buffer. For the assay, a saturating amount of K72 antiserum was added to the beads and the mixture was incubated for 1 h, washed with one volume of binding assay buffer, and then resuspended in the same volume of fresh binding assay buffer. […] After an additional hour of incubation at room temperature, the reactions were centrifuged briefly to pellet the beads and the extent of complex formation was determined by scintillation counting on a Packard TopCount™. […]

[2] = molecular target: T1, SV40 T Antigen (TAg)-origin complex (Simian virus 40, UniProt P03070); assay: SV40 T Antigen-DNA binding assay (counterscreen); type: biochemical; conditions: assay of Example 7, counterscreen
T1 construct: The Large T Antigen: Purchased from Chimerx, at 2.0 mg/mL; purchased Chimerx
T1 sequence (P03070 whole entry, one chain of several): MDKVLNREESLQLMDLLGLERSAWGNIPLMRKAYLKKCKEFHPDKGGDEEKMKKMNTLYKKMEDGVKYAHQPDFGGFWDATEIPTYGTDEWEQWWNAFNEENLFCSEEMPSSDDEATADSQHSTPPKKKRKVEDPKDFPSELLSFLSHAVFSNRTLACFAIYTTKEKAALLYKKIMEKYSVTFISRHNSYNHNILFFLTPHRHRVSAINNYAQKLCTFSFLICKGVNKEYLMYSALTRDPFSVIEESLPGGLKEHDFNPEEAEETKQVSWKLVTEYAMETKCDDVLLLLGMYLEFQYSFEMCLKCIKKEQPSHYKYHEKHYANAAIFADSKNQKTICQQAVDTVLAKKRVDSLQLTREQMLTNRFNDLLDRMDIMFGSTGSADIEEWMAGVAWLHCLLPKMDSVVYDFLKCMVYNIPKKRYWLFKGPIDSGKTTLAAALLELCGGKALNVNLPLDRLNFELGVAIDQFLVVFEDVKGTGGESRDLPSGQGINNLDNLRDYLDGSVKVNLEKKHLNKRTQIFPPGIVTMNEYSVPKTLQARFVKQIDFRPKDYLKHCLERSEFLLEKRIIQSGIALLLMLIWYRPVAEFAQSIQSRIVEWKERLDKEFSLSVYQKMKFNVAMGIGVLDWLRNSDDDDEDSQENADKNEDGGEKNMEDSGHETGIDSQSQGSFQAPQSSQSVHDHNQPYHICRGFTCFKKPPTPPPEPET
Description: SV40 T Antigen-DNA Binding Assay
This assay measures the formation of an SV40 T Antigen (TAg)-origin complex. The assay was developed by R. D. G. McKay (J. Mol. Biol. (1981) 145, 471–488). In principle, it is very similar to the E2-dependent E1-DNA binding assay (Example 6), with TAg replacing E1 and E2, and a radiolabeled SV40 ori probe replacing the HPV ori probe. The assay is used as a counterscreen for the assay of Example 6, since TAg shares functional homology to E1 and E2, but has very low sequence similarity.
The radiolabeled ori-containing DNA probe was made by PCR using pCH110 plasmid (Pharmacia) as a template. This template encodes the SV40 minimal origin of replication at nucleotides 7098-7023. Primers were “sv40-6958sens”=5′-GCCCCTAACTCCGCCCATCCCGC (SEQ ID NO. 7), and “sv40-206anti”=5′-ACCAGACCGCCACGGCTTACGGC (SEQ ID NO. 8). The PCR product was approximately 370 base pairs long and was radiolabeled using 50 μCi/100 μL PCR reaction of dCTP (α-^33P). […]
The protein-DNA complexes were immunocaptured using an α-TAg monoclonal antibody (PAb 101, subtype IgG2a, hybridoma obtained from ATCC and antibody purified in-house) bound to protein A-SPA beads. […] The plates were spun briefly and the precipitated radiolabeled DNA fragments were counted on a TopCount® counter.

Sequence of HPV-11 E2 (E2-dependent binding of E1 to the HPV-11 origin of replication) (P04015 whole entry): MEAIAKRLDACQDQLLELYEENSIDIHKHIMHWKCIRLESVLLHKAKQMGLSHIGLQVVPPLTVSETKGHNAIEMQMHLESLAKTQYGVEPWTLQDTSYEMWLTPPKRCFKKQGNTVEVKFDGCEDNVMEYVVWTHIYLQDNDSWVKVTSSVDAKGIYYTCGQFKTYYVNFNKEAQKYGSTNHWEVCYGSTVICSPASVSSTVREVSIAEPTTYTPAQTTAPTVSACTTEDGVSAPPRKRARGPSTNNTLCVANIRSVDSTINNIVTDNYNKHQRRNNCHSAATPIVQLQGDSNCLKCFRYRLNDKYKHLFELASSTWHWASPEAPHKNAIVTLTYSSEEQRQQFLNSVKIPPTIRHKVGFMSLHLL

What does the source list for Cc1ccc2c(c1)C(=O)[C@]1(O[C@@H](c3ccc(Cl)c(Cl)c3)[C@@H](C(=O)Nc3ccc(-c4csnn4)cc3)[C@H]1C(=O)[O-])C2=O.[Na+] (racemic) [Compound L]?
pIC50 [1]: 6.74; Selectivity: activity in the SV40 large T antigen assay [2]: lack of activity (or lower potency)

— patent US7167801B2, “Method of identifying potential inhibitors of human papillomavirus protein E2 using x-ray atomic coordinates” (Boehringer Ingelheim (Canada) Ltd., priority 2001, dated 2007)
